Where “and” joins values, the source holds several entries; their conditions need not be identical. Identical values can stand only once. Like-named read-outs stand apart in the source and are kept apart here.
Tests used:
FIH [1] = biological target: T1, FIH (Homo sapiens, UniProt Q9NWT6); assay: SPE-MS FIH inhibition assay; format: biochemical; for IC50 FIH: 0.15 µM FIH
Experimental: FIH inhibition assays were performed as described, using cosubstrate/cofactor stock solutions (L-ascorbic acid, LAA: 50 mM in MQ-grade water; 2-oxoglutarate, 2OG: 10 mM in MQ-grade water; ammonium iron(II) sulfate hexahydrate, FAS, (NH4)2Fe(SO4)2·6H2O: 400 mM in 20 mM HCl diluted to 1 mM in MQ-grade water), which were freshly prepared from commercially-sourced solids (Sigma Aldrich).
Dimethyl sulfoxide (DMSO) solutions of the 2OG derivatives were dry dispensed across 384-well polypropylene assay plates (Greiner) in an approximately threefold and 11-point dilution series (100 μM top concentration; the final DMSO assay concentration was kept constant at 0.5%v/v) using an ECHO 550 acoustic dispenser (Labcyte). […] Each reaction was performed in technical duplicates in adjacent wells of the assay plates; additionally, assays were performed in two independent duplicates on different days using different inhibitor solutions.
The Enzyme Mixture (25 μL/well), containing 0.3 μM His6-FIH in buffer (50 mM Tris, 50 mM NaCl, pH 7.5), was dispensed across the inhibitor-containing 384-well assay plates with a multidrop dispenser (ThermoFischer Scientific) at 20 °C under an ambient atmosphere. The plates were subsequently centrifuged (1000 rpm, 15 s) and incubated for 15 min at 20 °C. The Substrate Mixture (25 μL/well), containing 10.0 μM HIF-1α788–822[37] substrate, 200 μM LAA, 20.0 μM 2OG, and 20.0 μM FAS in buffer (50 mM Tris, 50 mM NaCl, pH 7.5), was added using the multidrop dispenser. The plates were centrifuged (1000 rpm, 15 s) and after incubating for 15 min, the enzyme reaction was stopped by the addition of 10%v/v aqueous formic acid (5 μL/well). The plates were then centrifuged (1000 rpm, 30 s) and analyzed by MS.
(§1) MS-analyses were performed using a RapidFire RF 365 high-throughput sampling robot (Agilent) attached to an iFunnel Agilent 6550 accurate-mass quadrupole time-of-flight mass spectrometer operated in the positive ionization mode. Assay samples were aspirated under vacuum for 0.6 s and loaded onto a C4 SPE cartridge. After loading, the C4 SPE cartridge was washed with 0.1%v/v aqueous formic acid to remove non-volatile buffer salts (5.5 s, 1.5 mL/min). […] The mass spectrometer was operated using the MassHunter Workstation B.08.00 software (Agilent), the mass spectrometer parameters were: capillary voltage (4000 V), nozzle voltage (1000 V), fragmentor voltage (365 V), gas temperature (280 °C), gas flow (13 L/min), sheath gas temperature (350 °C), sheath gas flow (12 L/min). The m/z + 2 (for CA1–20) or +3 (for HIF-1α788–822) charge states of the peptide (substrate) and the hydroxylated peptide (product) were used to extract ion chromatogram data, peak areas were integrated using RapidFire Integrator 4.3.0 (Agilent). Data were exported into Microsoft Excel and used to calculate the % conversion of the hydroxylation reaction using the equation: % conversion = 100 × (integral product peptide)/(integral substrate peptide+integral product peptide). […] Z′-factors were calculated according to the cited literature using Microsoft Excel (Supplementary Fig. 26)[83].
SPE-MS FIH inhibition assays were performed as described in the Methods section.
Tris, 50 mM NaCl, pH 7.5, 20 °C). […]

FIH [2] = biological target: T1, FIH; assay: SPE-MS FIH turnover (cosubstrate) assay in the absence of 2OG; format: biochemical; conditions: 330 μM 2OG or 2OG derivative, no 2OG, t = 15 min
Experimental: The ability of 35 synthetic C3/C4-substituted 2OG derivatives, which were prepared via a reported procedure (Supplementary Fig. 1 and Supplementary Methods)[21], to sustain catalysis by purified recombinant FIH in the absence of 2OG was examined using an assay directly monitoring substrate depletion and product formation (i.e., a +16 Da mass shift) by solid-phase extraction (SPE) coupled to mass spectrometry (SPE-MS)[44],[45]. […] (i.e. CA1–20)[47], were used as FIH substrates to test for potential substrate-dependent differences in terms of cosubstrate analog selectivity.
as §1, with “Assay” for “MS-analyses were performed using a RapidFire RF 365 high-throughput sampling robot (Agilent) attached to an iFunnel Agilent 6550 accurate-mass quadrupole time-of-flight mass spectrometer operated in the positive ionization mode. Assay”, “The m/z + 2 (for CA1–20) or +3 (for HIF-1α788–822) charge states of the peptide (substrate) and the hydroxylated peptide (product) were used to extract ion chromatogram data, peak areas were integrated using RapidFire Integrator 4.3.0 (Agilent).” left out

AspH = biological target: T2, AspH (Homo sapiens, UniProt Q12797); set-up: method as in PMID 34163896; conditions: hFX-CP101–119 substrate, 330 μM 2OG or 2OG derivative, t = 15 min; cited from earlier work
T2 construct: the tetratricopeptide repeat domain (His6-AspH315-758), was produced and purified as previously reported; made in house
T2 sequence (Q12797 315-758): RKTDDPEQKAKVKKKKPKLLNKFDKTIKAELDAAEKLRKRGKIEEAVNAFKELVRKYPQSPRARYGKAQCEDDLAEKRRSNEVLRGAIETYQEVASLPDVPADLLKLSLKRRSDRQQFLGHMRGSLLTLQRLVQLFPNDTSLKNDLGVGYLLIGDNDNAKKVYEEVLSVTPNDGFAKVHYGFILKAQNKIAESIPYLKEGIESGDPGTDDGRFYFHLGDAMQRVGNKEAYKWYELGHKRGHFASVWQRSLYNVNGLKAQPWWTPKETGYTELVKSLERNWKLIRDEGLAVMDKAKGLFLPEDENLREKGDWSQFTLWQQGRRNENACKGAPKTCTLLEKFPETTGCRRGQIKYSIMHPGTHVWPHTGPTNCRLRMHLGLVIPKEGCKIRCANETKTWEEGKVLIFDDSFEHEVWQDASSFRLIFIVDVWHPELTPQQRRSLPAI

[3] = […] FIH, 5.0 μM HIF-1α788-822, 10 μM 2OG, mean of two runs
[4] = […] FIH, 5.0 μM HIF-1α788-822, 10 μM 2OG, mean of two runs, read-out: IC50 FIH
[5] = source data of Table 3, single independent replicates, read-out: FIH IC50, independent replicate

T1 sequence (Q9NWT6 whole entry): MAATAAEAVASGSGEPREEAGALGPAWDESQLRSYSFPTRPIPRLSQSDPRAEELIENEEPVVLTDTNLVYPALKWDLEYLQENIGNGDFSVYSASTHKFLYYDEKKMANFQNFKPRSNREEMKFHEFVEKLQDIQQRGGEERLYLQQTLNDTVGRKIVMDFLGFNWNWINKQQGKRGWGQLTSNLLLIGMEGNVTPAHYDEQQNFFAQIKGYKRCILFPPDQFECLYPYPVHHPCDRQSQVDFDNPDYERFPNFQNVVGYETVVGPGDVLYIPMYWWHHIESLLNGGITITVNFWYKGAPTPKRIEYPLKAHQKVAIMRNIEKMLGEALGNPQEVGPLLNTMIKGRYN

SMILES	IC50 FIH (FIH [1]; [3])	FIH activity, %-substrate conversion (FIH [2]; CA1–20 substrate)	FIH activity, %-substrate conversion (FIH [2]; HIF-1α788–822 substrate)	AspH activity, %-substrate conversion (AspH) [%]	IC50 (FIH [1]; [4]) [µM]	FIH IC50, independent replicate (FIH [1]; source data of Table 3, single independent replicates)	IC50 (FIH [1]; [5])
O=C(O)C(=O)C1(C(=O)O)CC1 [compound 23]	inactive	^c<1% ^d<1%	^c<1% ^d<1%	<1	–	–	–
O=C(O)C(=O)CC(Cc1ccc2ccccc2c1)C(=O)O (stereo not shown) [compound 20]	–	^c<1% ^d<1%	^c<1% ^d<1%	<1	2.5	–	–
O=C(O)C(=O)[C@@H]1[C@@H](C(=O)O)[C@@H]2C=C[C@H]1C2 (racemic) [compound 24]	inactive	^c<1% ^d<1%	^c<1% ^d<1%	<1	–	–	–
O=C(O)C(=O)c1ccc(C(=O)O)s1 [compound 35]	inactive	^c<1% ^d<1%	^c<1% ^d<1%	~15	–	not inhibiting	–
O=C(O)CC(CCCc1ccccc1)C(=O)C(=O)O (stereo not shown) [compound 5]	–	^c<1% ^d<1%	^c<1% ^d<1%	<1	5.7	–	–
CC1(C)C(C(=O)O)C1C(=O)C(=O)O (stereo not shown) [compound 21]	–	^c<1% ^d<1%	^c<1% ^d<1%	<1	19.4	–	–
CC(C)(C)CCC(CC(=O)O)C(=O)C(=O)O (stereo not shown) [compound 4]	–	^c<1% ^d<1%	^c<1% ^d<1%	<1	31	–	–
O=C(O)C(=O)CC(Cc1ccccc1)C(=O)O (stereo not shown) [compound 19, 4-benzyl-2OG]	–	^c<1% ^d<1%	^c<1% ^d<1%	<1	–	–	3.42 µM and 3.64 µM
O=C(O)CC(Cc1ccc(F)cc1)C(=O)C(=O)O (stereo not shown) [compound 7]	–	^c<1% ^d<1%	^c<1% ^d<1%	<1	7.5	–	–
O=C(O)CC(Cc1ccccc1)C(=O)C(=O)O (stereo not shown) [compound 6]	–	^c<1% ^d<1%	^c<1% ^d<1%	<1	6.4	–	5.76 µM and 7.01 µM
Cc1cc(C)cc(CC(CC(=O)O)C(=O)C(=O)O)c1 (stereo not shown) [compound 10]	inactive	^c<1% ^d<1%	^c<1% ^d<1%	<1	–	–	–
CCCC(CC(=O)C(=O)O)C(=O)O (stereo not shown) [compound 15, 4-propyl-2OG]	–	~70%	~5%	<1	14.8	–	15.2 µM and 14.3 µM
O=C(O)CC(Cc1ccc(OC(F)(F)F)cc1)C(=O)C(=O)O (stereo not shown) [compound 8]	–	^c<1% ^d<1%	^c<1% ^d<1%	<1	12.7	–	–
